Each molecule was assayed on Ba/F3 cells expressing EGFR Del19/C797S (EGFR DC) (assay: Proliferation inhibitory activity, Ba/F3 cells expressing EGFR Del19/C797S (CellTiter-Glo)). Details: 72 hours of compound treatment.
Assay type: cell-based
Description: The following experiments were performed to evaluate the inhibitory activity of the compounds according to the present disclosure on Ba/F3 proliferation expressing EGFR C797S, L861Q, G719A, S768I, L718Q, and/or G724S mutations.
For Ba/F3 cells, RPMI-1640 containing 10% FBS and 5 ng/ml IL-3 (R&D Systems) was used. Transduced Ba/F3 cells were cultured after adding 1 μg/ml puromycin (Invitrogen) to the same medium.
At 24 hours before treatment with the compounds, 3000 to 5000 cells were aliquoted into each well of a white clear bottom 96 well plate (Corning). The compounds were diluted in dimethyl sulfoxide (3 times dilution, 12 concentrations in total), and injected in an amount of 1 μl so that the final concentration was 0.2 nM to 5 uM. For measurement of living cells, after 72 hours of compound treatment, the cells were stored at room temperature for 10 min using CellTiter-Glo luminescentcell-viability reagent (Promega), and then luminescence intensity was measured using a reader (SynergyNeo, Biotek). Each test was repeated three times. Result values were calculated as the cell growth rate (%) compared to the control. The graphs were created using GraphPad Prism version 8.3.0 program and the GI50 values were calculated.

Compound	GI50 [nM]
COc1cc(Nc2cc(N3OCC[C@@H]3c3cc(F)cc(F)c3)ncn2)ccc1N1CCC(N2CCN(C)CC2)CC1 [Example 26]	< 50

Same assay, conditions: Mus musculus, BaF3, 72 hours of compound treatment

Compound	GI50 [nM]
CN1CCN(c2ccc(Nc3cc(N4OCC[C@H]4c4ccccc4)ncn3)cc2)CC1 [Example 2, (S)—N-(4-(4-methylpiperazin-1-yl)phenyl)-6-(3-phenylisoxazolidin-2-yl)pyrimidin-4-amine]	50 to 500
CN1CCN(c2ccc(Nc3cc(N4OCC[C@@H]4Cc4ccccc4)ncn3)cc2)CC1 [Example 3, (S)-6-(3-benzylisoxazolidin-2-yl)-N-(4-(4-methylpiperazin-1-yl)phenyl)pyrimidin-4-amine]	< 50
CN1CCN(Cc2cc(Nc3cc(N4OCC[C@@H]4c4cc(F)cc(F)c4)ncn3)cc(C(C)(C)C#N)c2)CC1 [Example 14, (R)-2-(3-((6-(3-(3,5-difluorophenyl)isoxazolidin-2-yl)pyrimidin-4-yl)amino)-5-((4-methylpiperazin-1-yl)methyl)phenyl)-2-methylpropanenitrile]	50 to 500
CN1CCN(C2CCN(c3ccc(Nc4cc(N5OCC[C@@H]5c5cc(F)cc(F)c5)ncn4)cc3)CC2)CC1 [Example 17, (R)-6-(3-(3,5-difluorophenyl)isoxazolidin-2-yl)-N-(4-(4-(4-methylpiperazin-1-yl)piperidin-1-yl)phenyl)pyrimidin-4-amine]	50 to 500
CN1CCN(c2ccc(Nc3cc(N4OCC[C@@H]4c4cc(F)cc(F)c4)ncn3)cc2)CC1 [Example 18, (R)-6-(3-(3,5-difluorophenyl)isoxazolidin-2-yl)-N-(4-(4-methylpiperazin-1-yl)phenyl)pyrimidin-4-amine]	50 to 500
CN(C)CCN(C)c1ccc(Nc2cc(N3OCC[C@@H]3c3cc(F)cc(F)c3)ncn2)cc1 [Example 19, (R)—N^1-(6-(3-(3,5-difluorophenyl)isoxazolidin-2-yl)pyrimidin-4-yl)-N^4-(2-(dimethylamino)ethyl)-N^4-methylbenzene-1,4-diamine]	50 to 500
COc1cc(N2CCC(N3CCN(C)CC3)CC2)c(C)cc1Nc1cc(N2OCC[C@@H]2c2cc(F)cc(F)c2)ncn1 [Example 20, (R)-6-(3-(3,5-difluorophenyl)isoxazolidin-2-yl)-N-(2-methoxy-5-methyl-4-(4-(4-methylpiperazin-1-yl)piperidin-1-yl)phenyl)pyrimidin-4-amine]	< 50
COc1cc(N2CCC(N3CCN(C)CC3)CC2)ccc1Nc1cc(N2OCC[C@@H]2c2cc(F)cc(F)c2)ncn1 [Example 21, (R)-6-(3-(3,5-difluorophenyl)isoxazolidin-2-yl)-N-(2-methoxy-4-(4-(4-methylpiperazin-1-yl)piperidin-1-yl)phenyl)pyrimidin-4-amine]	< 50
COc1cc(N2CCC(N(C)C)CC2)ccc1Nc1cc(N2OCC[C@@H]2c2cc(F)cc(F)c2)ncn1 [Example 22, (R)-6-(3-(3,5-difluorophenyl)isoxazolidin-2-yl)-N-(4-(4-(dimethylamino)piperidin-1-yl)-2-methoxyphenyl)pyrimidin-4-amine]	< 50
CN1CCN(C2CCN(c3ccc(Nc4cc(N5OCC[C@@H]5c5cc(F)cc(F)c5)ncn4)cc3C(F)(F)F)CC2)CC1 [Example 23, (R)-6-(3-(3,5-difluorophenyl)isoxazolidin-2-yl)-N-(4-(4-(4-methylpiperazin-1-yl)piperidin-1-yl)-3-(trifluoromethyl)phenyl)pyrimidin-4-amine]	50 to 500
CN1CCN(C2CCN(c3ccc(Nc4cc(N5OCC[C@@H]5c5cc(F)cc(F)c5)ncn4)cc3S(C)(=O)=O)CC2)CC1 [Example 24, (R)-6-(3-(3,5-difluorophenyl)isoxazolidin-2-yl)-N-(4-(4-(4-methylpiperazin-1-yl)piperidin-1-yl)-3-(methylsulfonyl)phenyl)pyrimidin-4-amine]	50 to 500
CCc1cc(Nc2cc(N3OCC[C@@H]3c3cc(F)cc(F)c3)ncn2)c(OC)cc1N1CCC(N2CCN(C)CC2)CC1 [Example 25, (R)-6-(3-(3,5-difluorophenyl)isoxazolidin-2-yl)-N-(5-ethyl-2-methoxy-4-(4-(4-methylpiperazin-1-yl)piperidin-1-yl)phenyl)pyrimidin-4-amine]	< 50
COc1cc(N2CCC(N3CCN(C)CC3)CC2)ccc1Nc1cc(N2OCC[C@@H]2c2cccc(C(F)(F)F)c2)ncn1 [Example 27, (R)—N-(2-methoxy-4-(4-(4-methylpiperazin-1-yl)piperidin-1-yl)phenyl)-6-(3-(3-(trifluoromethyl)phenyl)isoxazolidin-2-yl)pyrimidin-4-amine]	50 to 500
COc1cc(N2CCC(N3CCN(C)CC3)CC2)ccc1Nc1cc(N2OCC[C@@H]2c2cccc(C(F)(F)F)c2F)ncn1 [Example 28, (R)-6-(3-(2-fluoro-3-(trifluoromethyl)phenyl)isoxazolidin-2-yl)-N-(2-methoxy-4-(4-(4-methylpiperazin-1-yl)piperidin-1-yl)phenyl)pyrimidin-4-amine]	50 to 500
COc1cc(N2CCC(N3CCN(C)CC3)CC2)ccc1Nc1cc(N2OCC[C@@H]2c2cccc(F)c2)ncn1 [Example 29, (R)-6-(3-(3-fluorophenyl)isoxazolidin-2-yl)-N-(2-methoxy-4-(4-(4-methylpiperazin-1-yl)piperidin-1-yl)phenyl)pyrimidin-4-amine]	< 50
COc1cc(N2CCC(N3CCN(C)CC3)CC2)ccc1Nc1cc(N2OCC[C@@H]2c2cc(F)ccc2F)ncn1 [Example 30, (R)-6-(3-(2,5-difluorophenyl)isoxazolidin-2-yl)-N-(2-methoxy-4-(4-(4-methylpiperazin-1-yl)piperidin-1-yl)phenyl)pyrimidin-4-amine]	< 50
COc1cc(N2CCC(N3CCN(C)CC3)CC2)ccc1Nc1cc(N2OCC[C@@H]2c2ccc(F)c(Cl)c2)ncn1 [Example 31, (R)-6-(3-(3-chloro-4-fluorophenyl)isoxazolidin-2-yl)-N-(2-methoxy-4-(4-(4-methylpiperazin-1-yl)piperidin-1-yl)phenyl)pyrimidin-4-amine]	< 50
COc1cc(N2CCC(N3CCN(C)CC3)CC2)ccc1Nc1cc(N2OCC[C@@H]2c2cccc(F)c2F)ncn1 [Example 32, (R)-6-(3-(2,3-difluorophenyl)isoxazolidin-2-yl)-N-(2-methoxy-4-(4-(4-methylpiperazin-1-yl)piperidin-1-yl)phenyl)pyrimidin-4-amine]	< 50
COc1cc(N2CCC(N3CCN(C)CC3)CC2)ccc1Nc1cc(N2OCC[C@@H]2c2ccc(F)cc2)ncn1 [Example 33, (R)-6-(3-(4-fluorophenyl)isoxazolidin-2-yl)-N-(2-methoxy-4-(4-(4-methylpiperazin-1-yl)piperidin-1-yl)phenyl)pyrimidin-4-amine]	< 50
COc1cc(N2CCC(N3CCN(C)CC3)CC2)ccc1Nc1cc(N2OCC[C@@H]2c2cccs2)ncn1 [Example 35, (R)—N-(2-methoxy-4-(4-(4-methylpiperazin-1-yl)piperidin-1-yl)phenyl)-6-(3-(thiophen-2-yl)isoxazolidin-2-yl)pyrimidin-4-amine]	< 50
COc1cc(N2CCC(N3CCN(C)CC3)CC2)ccc1Nc1cc(N2OCC[C@@H]2c2cccc3ccccc23)ncn1 [Example 36, (R)—N-(2-methoxy-4-(4-(4-methylpiperazin-1-yl)piperidin-1-yl)phenyl)-6-(3-(naphthalen-1-yl)isoxazolidin-2-yl)pyrimidin-4-amine]	50 to 500
COc1cc(N2CCC(N3CCN(C)CC3)CC2)ccc1Nc1cc(N2OCC[C@@H]2c2ccc(C)nc2)ncn1 [Example 38, (R)—N-(2-methoxy-4-(4-(4-methylpiperazin-1-yl)piperidin-1-yl)phenyl)-6-(3-(6-methylpyridin-3-yl)isoxazolidin-2-yl)pyrimidin-4-amine]	50 to 500
COc1cccc([C@H]2CCON2c2cc(Nc3ccc(N4CCC(N5CCN(C)CC5)CC4)cc3OC)ncn2)c1 [Example 41, (R)—N-(2-methoxy-4-(4-(4-methylpiperazin-1-yl)piperidin-1-yl)phenyl)-6-(3-(3-methoxyphenyl)isoxazolidin-2-yl)pyrimidin-4-amine]	50 to 500
CN1CCC(N2CCN3c4ccc(Nc5cc(N6OCC[C@@H]6c6ccccc6)ncn5)cc4OC[C@H]3C2)CC1 [Example 48, (R)-3-(1-methylpiperidin-4-yl)-N-(6-((R)-3-phenylisoxazolidin-2-yl)pyrimidin-4-yl)-1,2,3,4,4a,5-hexahydrobenzo[b]pyrazino[1,2-d][1,4]oxazin-8-amine]	< 50
COc1cc2c(cc1Nc1cc(N3OCC[C@@H]3c3ccccc3)ncn1)OC[C@H]1C[C@@H](N3CCN(C4CC4)CC3)CCN21 [Example 49, (6aR,8S)-8-(4-cyclopropylpiperazin-1-yl)-2-methoxy-N-(6-((R)-3-phenylisoxazolidin-2-yl)pyrimidin-4-yl)-6,6a,7,8,9,10-hexahydrobenzo[b]pyrido[1,2-d] [1,4]oxazin-3-amine]	< 50
Cc1cc(N2CCC(N3CCN(C)CC3)CC2)ccc1Nc1cc(N2OCC[C@@H]2c2ccccc2)ncn1 [Example 52, (R)—N-(2-methyl-4-(4-(4-methylpiperazin-1-yl)piperidin-1-yl)phenyl)-6-(3-phenylisoxazolidin-2-yl)pyrimidin-4-amine]	< 50
Cc1cc(Nc2cc(N3OCC[C@@H]3c3ccccc3)ncn2)ccc1N1CCC(N2CCN(C)CC2)CC1 [Example 53, (R)—N-(3-methyl-4-(4-(4-methylpiperazin-1-yl)piperidin-1-yl)phenyl)-6-(3-phenylisoxazolidin-2-yl)pyrimidin-4-amine]	< 50
